Data published in PubChem BioAssay (NCI).
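Cells were grown in 96-well plates and exposed to each compound for 48 hours at five concentrations; endpoints were interpolated linearly between bracketing concentrations, or set to the highest concentration if not reached. GI50 marks 50% less growth. Definition used: TGI = concentration required for complete inhibition of growth.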

Legend:
Experiment in all cases: NCI anticancer screen, dose series, 48 h
[1] = tested on: OVCAR-5 ovarian
[2] = tested on: CAKI-1 renal
[3] = tested on: SR leukemia
[4] = tested on: HOP-62 NSCLC
[5] = tested on: MDA-MB-231 breast
[6] = tested on: COLO 205 colon
[7] = tested on: HOP-92 NSCLC
[8] = tested on: HCT-116 colon
[9] = tested on: NCI-H460 lung
[10] = tested on: SF-539 CNS
[11] = tested on: T-47D breast
[12] = tested on: EKVX NSCLC
[13] = tested on: HS 578T breast
[14] = tested on: U251 CNS
[15] = tested on: SK-MEL-2 melanoma
[16] = tested on: SK-MEL-28 melanoma
[17] = tested on: SN12C renal
[18] = tested on: UACC-257 melanoma
[19] = tested on: OVCAR-8 ovarian
[20] = tested on: SF-268 CNS
[21] = tested on: BT-549 breast
[22] = tested on: MOLT-4 leukemia
[23] = tested on: MDA-MB-435
[24] = tested on: SK-OV-3 ovarian
[25] = tested on: A498 renal
[26] = tested on: HL-60(TB) leukemia
[27] = tested on: SK-MEL-5 melanoma
[28] = tested on: SW-620 colon
[29] = tested on: HCC-2998 colon

COc1ccc(C(=O)/C=C/c2ccc(OCc3ccc(F)cc3)c(OC)c2)cc1OC
GI50 [1]: 3.32 µM | TGI [1]: > 100 µM | GI50 [2]: 6.01 µM | TGI [2]: > 100 µM | GI50 [3]: 3.18 µM | TGI [3]: > 100 µM | GI50 [4]: 3.55 µM | TGI [4]: > 100 µM | GI50 [5]: 3.95 µM | TGI [5]: > 100 µM | GI50 [6]: 7.93 µM | TGI [6]: > 100 µM | GI50 [7]: 7.53 µM | TGI [7]: > 100 µM | GI50 [8]: 3.57 µM | TGI [8]: > 100 µM | GI50 [9]: 5.88 µM | TGI [9]: > 100 µM | GI50 [10]: 3.36 µM | TGI [10]: 16.7 µM | GI50 [11]: 5.34 µM | TGI [11]: > 100 µM | GI50 [12]: 5.19 µM | TGI [12]: > 100 µM | GI50 [13]: 23 µM | TGI [13]: > 100 µM | GI50 [14]: 3.79 µM | TGI [14]: > 100 µM | GI50 [15]: 13.4 µM | TGI [15]: 47.6 µM | GI50 [16]: 29.3 µM | TGI [16]: > 100 µM | GI50 [17]: 2.95 µM | TGI [17]: > 100 µM | GI50 [18]: 23.2 µM | TGI [18]: > 100 µM | GI50 [19]: 3.46 µM | TGI [19]: > 100 µM | GI50 [20]: 12 µM | TGI [20]: > 100 µM | GI50 [21]: 3.62 µM | TGI [21]: 60 µM | GI50 [22]: 4.07 µM | TGI [22]: > 100 µM | GI50 [23]: 5.06 µM | TGI [23]: 60.9 µM | GI50 [24]: 34.8 µM | TGI [24]: > 100 µM | GI50 [25]: 26.1 µM | TGI [25]: > 100 µM | GI50 [26]: 10.4 µM | TGI [26]: > 100 µM | GI50 [27]: 10.4 µM | TGI [27]: 29 µM | GI50 [28]: 3.8 µM | TGI [28]: > 100 µM | GI50 [29]: 3 µM | TGI [29]: 16.4 µM
